This note sets out measurements from US6936637B2, “Prevention of apoptosis in non-cancerous cells” (University of Tennessee Research Foundation, priority 1999, dated 2005).

Structures are written as SMILES.

Experiment [1] relates to IEC-6 cells. Description: Floating cell count (detachment-induced cell death, apoptosis). Conditions: for floating cells (percentage of total cell count): camptothecin exposure; for number of floating cells compared to control: FIG. 4. It is filed as cell-based, rat. Here is the method: IEC-6 cells, having the ATCC designation CRL-1592, were obtained from the American Type Culture Collection at passage 13. The IEC-6 cells are normal, non-cancerous intestinal epithelial cells derived from fetal rat crypt cells. These cells are non-tumorigenic and retain the undifferentiated character of epithelial stem cells. The IEC-6 cell stock was maintained in T-150 flasks in a humidified, 37° C. incubator in an atmosphere of 90:10 air:CO2. The medium used was Dulbecco's modified Eagle medium (DMEM) (Gibco BRL, Grand Island, N.Y.) with 5% heat inactivated fetal bovine serum (FBS) (Sigma, St. Louis, Mo.) and 10 μg insulin and 50 μg gentamicin sulfate per ml. The stock was passaged weekly at 1:10, fed 3 times per week, and passages 15-20 were used. The cells were plated on day 0 at a density of 6.25×10^4 cells/cm^2 in T-150 flasks in DMEM/dFBS (dialyzed fetal bovine serum with 10,000 molecular weight cut-off) (Sigma, St. Louis, Mo.) with or without the treatment compound or compounds described in the Examples that follow. The cells were fed on day 2. On day 3, medium was removed and replaced with serum-free medium. On day 4, camptothecin (Sigma, St. Louis, Mo.) in a DMSO vehicle was added to a concentration of 20 μM into the serum-free medium containing the cells of Example 1 for 3 to 18 hours, with the vehicle (DMSO) added to controls. Detachment-induced cell death (DICD) is a well recognized form of apoptosis in anchorage-dependent cell types, such as intestinal epithelial cells. Floating cells were poured into a 25 ml tube and the monolayer was washed once with HBSS without calcium and magnesium. This wash was then combined into the tube with the floating cells. Attached cells were taken up with 0.05% trypsin plus 0.53 MM EDTA, followed by one wash of the flask with DMEM/5% FBS. Cell counts were determined separately for floating and attached cells by counting on a Model ZF Coulter counter. Floating cells were expressed as a percentage of the total cell count obtained by combining the number of floating and attached cells.

Experiment [2] concerns IEC-6 cells. The experiment is described as follows: Nucleosomal DNA fragmentation assay. It is filed as cell-based, rat. Conditions: camptothecin 20 μM. The procedure: Cells were collected for determining the presence or absence of DNA fragmentation. After treatment with camptothecin (or vehicle), floating cells were poured off and combined with one DPBS wash of the monolayer. […] The attached cells were collected for DNA fragmentation by scraping in DPBS and combining with one wash of the flask with DPBS. […] The nucleosomal fragmentation assay was carried out by isolating DNA from the cells using the TACS apoptotic DNA laddering kit (Trevigen, Gaithersburg, Md.) and analyzing the labeled DNA by agarose gel electrophoresis following the manufacturer's instructions.

Experiment [3] has as its system CaCo-2 cells. Description: Floating cell count in cancerous cells. Format: cell-based, human. The procedure:
Cancerous human intestinal CaCo-2 cells were grown in similar culture media as described in Example 1, except that one group of the cells was grown in a medium not containing DFMO and another group was grown in a medium containing DFMO. After four days of growth, camptothecin at a dose of 20 μM was added to the culture medium of each of the groups. After 6 hours, the number of floating cells in the media of the two groups of cells was determined. The study was repeated using a different inducer of apoptosis, a combination of 20 ng/ml of tumor necrosis factor-α (TNF-α) and 25 μg/ml of cycloheximide.

Experiment [4] deals with caspase 3. The experiment is described as follows: Caspase 3 activity assay (DEVD-pNA) in cell lysates. It is filed as cell-based, rat. Conditions: for caspase 3 activity over time, attached cells: camptothecin exposure 0 to 18 hours, control cells or DFMO treated cells.
Experimental: In a separate flask, following camptothecin or DMSO addition, the cells were harvested after 16 hours in order to obtain a sufficient number of floating cells for analysis. Floating cells were then poured off to be counted and were combined with one wash with cold DPBS (Sigma, St. Louis, Mo.). The attached cells were then harvested for determination of caspase activity. 10 ml of DPBS was added to the flask and the monolayer was scraped and collected into a 25 ml tube. The flask was washed once with 10 ml of DPBS and combined into the 25 ml tube. The cells were pelleted by centrifugation at 800× g for 5 minutes. The supernatant was discarded and the pellet was resuspended in 1 ml of cold DPBS and transferred into a microfuge tube. The cells were pelleted by centrifugation at 10,000× g at 4° C. for 10 minutes. The supernatant was discarded and the cells were lysed in 100 ml of ice cold cell lysis buffer (50 mM HEPES, pH 7.4, 0.1% CHAPS, 1 mM DTT, 0.1 mM EDTA, 0.1% NP40) (Sigma, St. Louis, Mo.). The assay for caspase activity was carried out in a 96-well plate. Into each well was placed 20 μl of cell lysate, 70 μl of assay buffer (50 mM HEPES, pH 7.4, 0.1% CHAPS, 100 mM NaCl, 10 mM DTT, 1 mM EDTA ) and 10 μl of caspase 3 calorimetric substrate (2 mM DEVD-pNA prepared in assay buffer, a caspase specific peptide that is conjugated to the chromogen p-nitroanilide) (Biomol Research Laboratories, Plymouth Meeting, Pa.). The 96-well plate was incubated at 37° C. for 2 hours, during which time the caspase in the sample was allowed to cleave the chromophore pNA from the substrate molecule. Absorbance readings at 405 nm were made after the 2 hour incubation, with the caspase activity being directly proportional to the color reaction. Protein was determined for each sample using the BCA method (Pierce, Rockford, Ill.) and a standard curve for p-nitroanilide was carried out. Results for caspase activity were expressed as pmol of pNA released/mg protein/minute.
The test system of experiment [5] is IEC-6 cells. The experiment is described as follows: Intracellular polyamines by HPLC. Format: cell-based, rat. Conditions: for level of putrescine in the cells / level of spermidine in the cells / level of spermine in the cells: cells grown in presence of DFMO or DEGBG. Here is the method:
IEC-6 cells were grown for 4 days in the presence or absence of DFMO (Marion Merrel Dow, Cincinnati, Ohio) the highly specific inhibitor of ODC. DFMO treatment depletes putrescine within 3 hours. Depletion of spermidine requires 24 hours and significant depletion (about 50%) of spermine requires 3 days.
Intracellular polyamines were analyzed by high performance liquid chromatography. Cells were plated in 60 mm dishes at 6.25×10^4 cells/cm^2 and grown in DMEM/dFBS with or without DFMO or DEGBG. After washing the monolayer three times with ice-cold DPBS, 0.5 M perchloric acid was added and the samples were then frozen at −80° C. until ready for extraction, dansylation, and HPLC. The standard curve encompassed the range of 0.31-10 μM. Values that fell >25% below the curve were considered not detectable. The level of […] was determined by the Bradford method, as described in Anal. Biochem., 72:248-254 (1976).

Experiment [6] deals with caspase 3. Conditions: putrescine up to 5 μM added to cell extracts from DFMO treated cells.
Experiment [7] has as its system mast cell tumor. The experiment is described as follows: Dog with mast cell tumor treated with Co60 gamma radiation. Conditions: DFMO 100 mg/kg/day orally for four days, adult dog. It is filed as in vivo. The procedure:
DFMO at a dosage of 100 mg/kg/day is administered orally for four days to an adult dog suffering from a mast cell tumor on one of its rear legs. The tumor is treated in multiple sessions by exposure to Co^60 gamma radiation as indicated for this type of tumor. The field of exposure to the radiation exceeds the boundaries of the tumor.

The test system of experiment [8] is caspase 3. The experiment is described as follows: Western blot of caspase 3 levels. Format: cell-based, rat. Conditions: polyamine depleted cells (DFMO). The procedure: Total cell protein (50 μg) from cell extracts prepared for caspase 3 assay was separated on 15% SDS-PAGE and transferred to nitrocellulose membranes for western blotting. Equal loading of protein was confirmed by staining the nitrocellulose membrane with Ponceau S (Sigma, St. Louis, Mo.). The membrane was then probed with an antibody directed against caspase 3 (CPP32) (Santa Cruz Biotechnology, Santa Cruz, Calif.). The immunocomplexes were visualized by the enhanced chemiluminescence detection system.

In experiment [9] the test system is CaCo-2 cells. Description: Examples 1 to 8 repeated in cancerous cells. Conditions: CaCo-2 cells substituted for IEC-6. Format: cell-based, human. The text has this: Studies described in Examples 1 to 8 are repeated, except that cancerous human intestinal CaCo-2 cells (ATCC no. HTB37) are substituted for the IEC-6 rat intestinal cell lines.
[10] abbreviates: 0 time, control cells or DFMO treated cells.
Where [11] appears, read: 18 hours, control cells or DFMO treated cells.
Setting [12] is: cells grown 4 days with DFMO, 6 hours after camptothecin.

As for `CC[C@@]1(O)C(=O)OCc2c1cc1n(c2=O)Cc2cc3ccccc3nc2-1` [camptothecin], the “increase in the number of floating cells compared to DMSO control group” value in [1] (camptothecin 20 μM, within 6 hours) was 8 fold. Also, the “floating cells (percentage of total cell count)” value in experiment [1] (setting [10]) is reported as 6.2%; in [1] (setting [11]) it was 49.3%. Further, the “onset of camptothecin induced apoptosis (number of floating cells)” value in [1] (control cells (no DFMO)) was no more than 3 h. Also, in [2] (attached cells), the “DNA fragmentation, attached cells” value is on record as “did not show remarkable DNA fragmentation”. Also, the “DNA fragmentation, detached cells” value in experiment [2] (detached (floating) cells) is “showed characteristic nucleosomal DNA fragments”. Moreover, the “number of floating cells” value in experiment [3] (no DFMO, camptothecin 20 μM, 6 hours) was 2.7 +/− .06. The “caspase 3 activity, detached cells” value in experiment [4] (camptothecin 20 μM, detached (floating) cells) was “increased caspase 3 activity”. Moreover, in [4] (camptothecin 20 μM, harvested after 16 hours, attached cells), the “increase in caspase 3 activity, attached cells” value was 7 fold. Moreover, the “caspase 3 activity over time, attached cells” value in [4] is on record as “increased progressively with time”.

For the compound `CCC(=NNC(=N)N)C(CC)=NNC(=N)N` [DEGBG, diethylglyoxal bis-(guanylhydrazone)], the “percentage of floating cells” value was determined as 26.6% in experiment [1] (day 1 of treatment), 26.9% in experiment [1] (day 2 of treatment) and 23.3% in experiment [1] (day 4 of treatment). Moreover, the “level of putrescine in the cells” value in [5] is “significantly increased”. Moreover, in [5], the “level of spermidine in the cells” value is on record as “decreasing”. Besides, the “level of spermine in the cells” value in experiment [5] is recorded as “decreasing”.

For the compound `NCCCCN` [putrescine], in experiment [1] (exogenous 10 μM putrescine along with DFMO), the “number of floating cells compared to control” value was “restored the number of floating cells to control levels”. Besides, the “effect on caspase activity” value in experiment [6] was “did not reveal any effect”.

On to `NCCCC(N)(C(=O)O)C(F)F` (racemic) [DFMO, DL-œ-difluoromethylornithine], for which, in experiment [1] (DFMO alone), the “number of floating cells compared to control” value was “decreased the number of floating cells”. In [1] (DFMO treated cells exposed to camptothecin), the “delay of onset of apoptosis” value is on record as “up to 12 hours”. The “floating cells (percentage of total cell count)” value worked out at 2.2% in [1] (setting [10]); 9.3% in experiment [1] (12 hours, DFMO treated cells); 29.1% in experiment [1] (setting [11]). The “decrease in the number of floating cells compared to control cells treated with camptothecin” value in [1] (setting [12]) was roughly 3 fold. Also, the protection against apoptosis result in experiment [1] (cells grown 4 days with DFMO, DMSO (vehicle) or camptothecin, 6 hours) was “protected against both DMSO (vehicle) and camptothecin-induced apoptosis”. Besides, the “percentage of floating cells” value in experiment [1] (day 1 of treatment) is 19.2%; in [1] (day 2 of treatment), 12.4%; in experiment [1] (day 4 of treatment), 2.2%. For the same compound, the “death of surrounding normal tissues” value in experiment [7] is “visually noticeable decrease in death of the surrounding normal tissues”. Also, the effect on tumor entry in [7] is recorded as “the tumor is killed”. In addition, the “level of caspase 3 (Western blot) compared with controls” value in [8] is “not significantly different”. In addition, the “protection of cancerous cells from apoptosis” value in experiment [3] (apoptosis induced by camptothecin or TNF-α + cycloheximide) is “did not protect the cancerous cells from apoptosis”. Besides, the “number of floating cells” value in experiment [3] (with DFMO 4 days, 20 ng/ml TNF-α and 25 μg/ml cycloheximide) is 6.2 +/− .6; in experiment [3] (with DFMO 4 days, camptothecin 20 μM, 6 hours), 3.7 +/− .24; in experiment [3] (with DFMO 4 days, no TNF-α + cycloheximide), 4.8 +/− .5; in [3] (with DFMO 4 days, no camptothecin), 3.1 +/− .06. The “time required for depletion of spermidine” value in [5] (DFMO treatment of IEC-6 cells) was 24 h. Besides, the “time required for significant depletion of spermine” value in experiment [5] (DFMO treatment of IEC-6 cells) is 3 days. Also, the “time to depletion of putrescine” value in experiment [5] (DFMO treatment of IEC-6 cells) was no more than 3 h. Also, the depletion of spermine entry in [5] (DFMO treatment, 3 days) was “about 50%”. Moreover, the “level of putrescine in the cells” value in experiment [5] was “decreases”. Also, in [5], the “level of spermidine in the cells” value was “decreases”. For the same compound, the “level of spermine in the cells” value in experiment [5] was “decreases”. Besides, in experiment [9], the inhibition of apoptosis result is “No inhibition of apoptosis is observed”. Further, the “exposure to camptothecin after which significant increase in caspase 3 activity was observed” value in experiment [4] (DFMO treated cells) was found to be 18 h. In experiment [4], the “caspase 3 activity over time, attached cells” value is on record as “did not show remarkable increases in caspase 3 activity for up to 12 hours”. The “lower caspase 3 activity compared to control” value in [4] (setting [12]) is recorded as “approximately 50%”.
